Laboratory results taken from patent US20250074892A1, “CARBONYL BRIDGED HETEROCYCLIC COMPOUND, AND COMPOSITION AND APPLICATION THEREOF” (BEIJING SCITECH-MQ PHARMACEUTICALS LIMITED, priority 2022, published 2025).

Columns and labels:
L929 cells = assay: Inhibition of cell necrosis (CCK8 method), L929 cells; assay type: cell-based, mouse; conditions: 4-8 hours, CCK8
Method: (§1) In this assay example 2, under the condition of inducing programmed cell necrosis of HT29 and L929 cell lines, different concentrations of the test compounds were added to test the IC50 of the rescue effect of the test compounds on the programmed necrosis.
(§2) • Compounds: dissolved in DMSO to make a 10 mM solution; • TNF-α: initial concentration of 100 µg/mL; • Z-VAD-FMK: dissolved in DMSO to make a 10 mM solution; • AT-406: dissolved in DMSO to make a 10 mM solution. • Cell lines: HT29 cells were cultured in McCoy's 5A medium containing 10% fetal bovine serum, 100 U/mL penicillin, and 100 µg/mL streptomycin, and L929 cells were cultured in MEM medium containing 10% horse serum, 100 U/mL penicillin, and 100 µg/mL streptomycin.
(§3) 1. The test compound was dissolved in DMSO to form a stock solution, and a gradient dilution was performed; the solution was then diluted with the corresponding culture medium to obtain a solution with 10 times the working concentration.
(§4) 2. The cells in the logarithmic growth phase were diluted with culture medium to a specific cell concentration. 80 µL of the cell suspension was added to a 96-well plate, so that the cell densities of HT29 and L929 were 1.2*10^4 cells/well and 2.0*10^4 cells/well, respectively. The plate was cultured in a 37° C., 5% carbon dioxide incubator overnight.
(§5) 3. […] of the compound solution was added to each well of the 96-well plate inoculated with cells. The compounds to be tested were serially diluted 4-fold to obtain 9 concentrations in duplicate, starting from a maximum concentration of 10 μM. At the same time, a control group without compound addition was set up.
(§6) 4. After the cells were cultured for another 30 minutes, 10 μL of the inducer mixture was added to each well. The final concentrations of Human TNF-α, AT-406 and Z-VAD-FMK in HT29 cells were 20 ng/mL, […] and 20 μM, respectively; and the final concentrations of Murine TNF-α and Z-VAD-FMK in L929 cells were 20 ng/mL and 25 μM, respectively.
(§7) 5. The 96-well plate in which compounds and inducer were added was placed in a 37° C., 5% carbon dioxide incubator for further culture, wherein HT29 cells were cultured for 16 hours and L929 cells were cultured for 4-8 hours. Cell viability was detected by CCK8. GraphPad Prism software was used to prepare a dose-effect curve and IC50 was calculated.

HT29 cells = assay: Inhibition of cell necrosis (CCK8 method), HT29 cells; assay type: cell-based, human; conditions: HT29, Human TNF-α/AT-406/Z-VAD-FMK, 16 hours, CCK8
Method: as §1, §2, §3, §4, §5, §6, §7

[1] = Mus musculus, L929, L929, Murine TNF-α/Z-VAD-FMK

`COCCOc1ccc(Cl)c(-c2ccnc(N3CCC(C(=O)N4N=CCC4c4cc(F)cc(F)c4)CC3)c2)c1` (stereo not shown) [Example 16, (1-(4-(2-chloro-5-(2-methoxyethoxy)phenyl)pyridin-2-yl)piperidin-4-yl)(5-(3,5-difluorophenyl)-4,5-dihydro-1H-pyrazol-1-yl)methanone] showed an IC50 (L929 cells; [1]) of 50 to 100 nM and an IC50 (HT29 cells; Homo sapiens, HT-29, 16 h) of 10 to 50 nM.
Work on `O=C(C1CCN(c2cc(-c3cc(OCCCO)ccc3Cl)ccn2)CC1)N1N=CCC1c1cc(F)cc(F)c1` (stereo not shown) [Example 17, (1-(4-(2-chloro-5-(3-hydroxypropoxy)phenyl)pyridin-2-yl)piperidin-4-yl)(5-(3,5-difluorophenyl)-4,5-dihydro-1H-pyrazol-1-yl)methanone] yielded an IC50 (L929 cells; [1]) of 50 to 100 nM and an IC50 (HT29 cells; Homo sapiens, HT-29, 16 h) of 10 to 50 nM.
For `COCCOc1ccc(C)c(-c2ccnc(N3CCC(C(=O)N4N=CCC4c4ccccc4F)CC3)c2)c1` (stereo not shown) [Example 19, (5-(2-fluorophenyl)-4,5-dihydro-1H-pyrazol-1-yl)(1-(4-(5-(2-methoxyethoxy)-2-methylphenyl)pyridin-2-yl)piperidin-4-yl)methanone], the IC50 (L929 cells; [1]) was 10 to 50 nM and the IC50 (HT29 cells; Homo sapiens, HT-29, 16 h) was ≤ 10 nM.
With `Cc1ccc(OCCCO)cc1-c1ccnc(N2CCC(C(=O)N3N=CCC3c3ccccc3F)CC2)c1` (stereo not shown) [Example 20, (5-(2-fluorophenyl)-4,5-dihydro-1H-pyrazol-1-yl)(1-(4-(5-(3-hydroxypropoxy)-2-methylphenyl)pyridin-2-yl)piperidin-4-yl)methanone] the IC50 (L929 cells; L929, Murine TNF-α/Z-VAD-FMK) was 10 to 50 nM and the IC50 (HT29 cells) was 10 to 50 nM.
For `O=C(C1CCN(c2cc(-c3cc(OCCO)ccc3F)ccn2)CC1)N1N=CCC1c1cc(F)cc(F)c1` (stereo not shown) [Example 22, (5-(3,5-difluorophenyl)-4,5-dihydro-1H-pyrazol-1-yl)(1-(4-(2-fluoro-5-(2-hydroxyethoxy)phenyl)pyridin-2-yl)piperidin-4-yl)methanone], the IC50 (L929 cells; [1]) was 50 to 100 nM and the IC50 (HT29 cells; Homo sapiens, HT-29, 16 h) was ≤ 10 nM.
For `O=C(C1CCN(c2cc(-c3cc(OCCCCCO)ccc3F)ccn2)CC1)N1N=CCC1c1cc(F)cc(F)c1` (stereo not shown) [Example 25, (5-(3,5-difluorophenyl)-4,5-dihydro-1H-pyrazol-1-yl)(1-(4-(2-fluoro-5-((5-hydroxypentyl)oxy)phenyl)pyridin-2-yl)piperidin-4-yl)methanone], the IC50 (L929 cells; [1]) was 10 to 50 nM and the IC50 (HT29 cells; Homo sapiens, HT-29, 16 h) was ≤ 10 nM.
`CC(C)(O)CCCCOc1ccc(F)c(-c2ccnc(N3CCC(C(=O)N4N=CCC4c4cc(F)cc(F)c4)CC3)c2)c1` (stereo not shown) [Example 26, (5-(3,5-difluorophenyl)-4,5-dihydro-1H-pyrazol-1-yl)(1-(4-(2-fluoro-5-((5-hydroxy-5-methylhexyl)oxy)phenyl)pyridin-2-yl)piperidin-4-yl)methanone] was tested, and the IC50 (L929 cells; [1]) was 10 to 50 nM and the IC50 (HT29 cells; Homo sapiens, HT-29, 16 h) was ≤ 10 nM.
`O=C(C1CCN(c2cc(-c3cc(OCCCF)ccc3F)ccn2)CC1)N1N=CCC1c1cc(F)cc(F)c1` (stereo not shown) [Example 27, (5-(3,5-difluorophenyl)-4,5-dihydro-1H-pyrazol-1-yl)(1-(4-(2-fluoro-5-(3-fluoropropoxy)phenyl)pyridin-2-yl)piperidin-4-yl)methanone] was tested, and the IC50 (L929 cells; [1]) was 50 to 100 nM and the IC50 (HT29 cells; Homo sapiens, HT-29, 16 h) was ≤ 10 nM.
`COCCOc1ccc(C)c(-c2ccnc(N3CCC(C(=O)N4N=CCC4c4ccccc4)CC3)c2)c1` (stereo not shown) [Example 28, (1-(4-(5-(2-methoxyethoxy)-2-methylphenyl)pyridin-2-yl)piperidin-4-yl)(5-phenyl-4,5-dihydro-1H-pyrazol-1-yl)methanone] was tested, and the IC50 (L929 cells; [1]) was 50 to 100 nM and the IC50 (HT29 cells; Homo sapiens, HT-29, 16 h) was ≤ 10 nM.
Molecule `Cc1ccc(OCCCO)cc1-c1ccnc(N2CCC(C(=O)N3N=CCC3c3ccccc3F)CC2)c1` (stereo not shown) [Example 29, (5-(2-fluorophenyl)-4,5-dihydro-1H-pyrazol-1-yl)(1-(4-(5-(3-hydroxypropoxy)-2-methylphenyl)pyridin-2-yl)piperidin-4-yl)methanone] has an IC50 (L929 cells; L929, Murine TNF-α/Z-VAD-FMK) of 50 to 100 nM and an IC50 (HT29 cells; Homo sapiens, HT-29, 16 h) of 10 to 50 nM.
For `COCCCOc1ccc(F)c(-c2ccnc(N3CCC(C(=O)N4N=CCC4c4cc(F)cc(F)c4)CC3)c2)c1` (stereo not shown) [Example 30, (5-(3,5-difluorophenyl)-4,5-dihydro-1H-pyrazol-1-yl)(1-(4-(2-fluoro-5-(3-methoxypropoxy)phenyl)pyridin-2-yl)piperidin-4-yl)methanone], the IC50 (L929 cells; [1]) was 50 to 100 nM and the IC50 (HT29 cells; Homo sapiens, HT-29, 16 h) was ≤ 10 nM.
In the case of `Cc1ccc(OCCCO)cc1-c1ccnc(N2CCC(C(=O)N3N=CCC3c3ccccc3)CC2)c1` (stereo not shown) [Example 31, (1-(4-(5-(3-hydroxypropoxy)-2-methylphenyl)pyridin-2-yl)piperidin-4-yl)(5-phenyl-4,5-dihydro-1H-pyrazol-1-yl)methanone], the IC50 (L929 cells; [1]) is reported as 10 to 50 nM and the IC50 (HT29 cells; Homo sapiens, HT-29, 16 h) is reported as ≤ 10 nM.
In the case of `COCCCCOc1ccc(C)c(-c2ccnc(N3CCC(C(=O)N4N=CCC4c4cc(F)cc(F)c4)CC3)c2)c1` (stereo not shown) [Example 32, (5-(3,5-difluorophenyl)-4,5-dihydro-1H-pyrazol-1-yl)(1-(4-(5-(4-methoxybutoxy)-2-methylphenyl)pyridin-2-yl)piperidin-4-yl)methanone], the IC50 (L929 cells; L929, Murine TNF-α/Z-VAD-FMK) is reported as 10 to 50 nM and the IC50 (HT29 cells; Homo sapiens, HT-29, 16 h) is reported as ≤ 10 nM.
In the case of `Cc1ccc(OCC2CCOCC2)cc1-c1ccnc(N2CCC(C(=O)N3N=CCC3c3cc(F)cc(F)c3)CC2)c1` (stereo not shown) [Example 33, (5-(3,5-difluorophenyl)-4,5-dihydro-1H-pyrazol-1-yl)(1-(4-(2-methyl-5-((tetrahydro-2H-pyran-4-yl)methoxy)phenyl)pyridin-2-yl)piperidin-4-yl)methanone], the IC50 (L929 cells; [1]) is reported as 10 to 50 nM and the IC50 (HT29 cells; Homo sapiens, HT-29, 16 h) is reported as ≤ 10 nM.
`COCCCCOc1ccc(C)c(-c2ccnc(N3CCC(C(=O)N4N=CCC4c4cc(F)cc(F)c4)CC3)c2)c1` (stereo not shown) [Example 34, (5-(3,5-difluorophenyl)-4,5-dihydro-1H-pyrazol-1-yl)(1-(4-(5-(4-methoxybutoxy)-2-methylphenyl)pyridin-2-yl)piperidin-4-yl)methanone] gave an IC50 (L929 cells; L929, Murine TNF-α/Z-VAD-FMK) of 50 to 100 nM and an IC50 (HT29 cells) of 10 to 50 nM.
In the case of `Cc1ccc(OCCCCO)cc1-c1ccnc(N2CCC(C(=O)N3N=CCC3c3cc(F)cc(F)c3)CC2)c1` (stereo not shown) [Example 35, (5-(3,5-difluorophenyl)-4,5-dihydro-1H-pyrazol-1-yl)(1-(4-(5-(4-hydroxybutoxy)-2-methylphenyl)pyridin-2-yl)piperidin-4-yl)methanone], the IC50 (L929 cells; L929, Murine TNF-α/Z-VAD-FMK) is reported as 50 to 100 nM and the IC50 (HT29 cells) is reported as 10 to 50 nM.
In the case of `O=C(C1CCN(c2cc(-c3cc(OCCCCO)ccc3F)ccn2)CC1)N1N=CCC1c1cc(F)cc(F)c1` (stereo not shown) [Example 36, (5-(3,5-difluorophenyl)-4,5-dihydro-1H-pyrazol-1-yl)(1-(4-(2-fluoro-5-(4-hydroxybutoxy)phenyl)pyridin-2-yl)piperidin-4-yl)methanone], the IC50 (L929 cells; [1]) is reported as 50 to 100 nM and the IC50 (HT29 cells; Homo sapiens, HT-29, 16 h) is reported as ≤ 10 nM.
In the case of `O=C(C1CCN(c2cc(-c3cc(OCC(F)(F)CO)ccc3F)ccn2)CC1)N1N=CCC1c1cc(F)cc(F)c1` (stereo not shown) [Example 37, (1-(4-(5-(2,2-difluoro-3-hydroxypropoxy)-2-fluorophenyl)pyridin-2-yl)piperidin-4-yl) (5-(3,5-difluorophenyl)-4,5-dihydro-1H-pyrazol-1-yl)methanone], the IC50 (L929 cells; [1]) is reported as 10 to 50 nM and the IC50 (HT29 cells; Homo sapiens, HT-29, 16 h) is reported as ≤ 10 nM.
`O=C(C1CCN(c2nccc(-c3cc(OCCCO)ccc3F)n2)CC1)N1N=CCC1c1cc(F)cc(F)c1` (stereo not shown) [Example 38, (5-(3,5-difluorophenyl)-4,5-dihydro-1H-pyrazol-1-yl)(1-(4-(2-fluoro-5-(3-hydroxypropoxy)phenyl)pyrimidin-2-yl)piperidin-4-yl)methanone] was tested, and the IC50 (L929 cells; [1]) was 50 to 100 nM and the IC50 (HT29 cells; Homo sapiens, HT-29, 16 h) was 10 to 50 nM.
For `CC(C)(O)CCOc1ccc(F)c(-c2ccnc(N3CCC(C(=O)N4N=CCC4c4cc(F)cc(F)c4)CC3)n2)c1` (stereo not shown) [Example 39, (5-(3,5-difluorophenyl)-4,5-dihydro-1H-pyrazol-1-yl)(1-(4-(2-fluoro-5-(3-hydroxy-3-methylbutoxy)phenyl)pyrimidin-2-yl)piperidin-4-yl)methanone], the IC50 (L929 cells; [1]) was 50 to 100 nM and the IC50 (HT29 cells; Homo sapiens, HT-29, 16 h) was ≤ 10 nM.
